Paper PMC12866838, “Targeting G3BP1 Condensate Topology Promotes Stress Granule Assembly via m^6A‐IGF2BP1 for Ischemic Stroke Rescue” (Advanced Science, 2025)
pKd: −log10 of the molar value.

Biological target: T1, G3BP1^335–466 (RRM and IDR3 domains) (Homo sapiens, UniProt Q13283)
T1 construct: RRM + IDR3, residues 335-466, N-terminal GST removed by thrombin, E. coli BL21(DE3)
Test: SPR (Biacore T200, protein on CM5 chip)
Type: binding

T1 sequence (Q13283 335-466): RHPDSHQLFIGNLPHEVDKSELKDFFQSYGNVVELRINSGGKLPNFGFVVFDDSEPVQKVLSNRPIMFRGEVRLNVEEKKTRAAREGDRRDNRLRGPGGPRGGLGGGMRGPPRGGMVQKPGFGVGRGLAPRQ

pKd: < 4.00
Compound: COc1ccc(-c2oc3c(CC=C(C)C)c(O[C@@H]4O[C@H](CO)[C@@H](O)[C@H](O)[C@H]4O)cc(O)c3c(=O)c2O[C@@H]2O[C@@H](C)[C@H](O)[C@@H](O)[C@H]2O)cc1 [icariin]
